Tests used:
NCI-H460 = test: Cytotoxicity assay (MTS, Celltiter 96) in NCI-H460; format: cell-based, human; conditions: for IC50: 72 h drug incubation, MTS assay, mean of duplicate experiments ± SD
Description: (§1) After successful synthesis and purification of P1-A1, P1-B1, and P1-B2 was completed, each drug was tested for its cell-kill ability in five non-small-cell lung cancer cell lines (Table 2).
(§2) ^aConcentration of compound that reduces cell viability by 50%, determined at 72 h of drug incubation using the MTS (3-(4,5-dimethylthiazol-2-yl)-5-(3-carboxymethoxyphenyl)-2-(4-sulfophenyl)-2H-tetrazolium) assay. Values are means of duplicate experiments±the standard deviation. ^bCompound not tested in this cell line.
(§3) The human non-small cell lung cancer cell lines, NCI-H460 (large cell), NCI-H520 (squamous cell), NCI-H522, NCI-H1435 and A549 (adenocarcinomas) were obtained from the American Type Culture Collection (Rockville, Md., USA). NCI-H460, NCI-H520 and NCI-H522 cells were cultured in RPMI-1640 media (HyClone) supplemented with 10% fetal bovine serum (FBS), […] (P&S), […], and 1.5 g/L NaHCO3. A549 cells were cultured in HAM's F12K media (Gibco) with the same additives as above. NCI-H1435 cells were cultured in serum-free 1:1 DMEM/F12 media (Gibco) containing 2.436 g/L NaHCO3, 0.02 mg/mL insulin, 0.01 mg/mL transferrin, 25 nM sodium selenite, 50 nM hydrocortisone, 1 ng/mL epidermal growth factor, 0.01 mM ethanolamine, 0.01 mM phosphorylethanolamine, 100 pM triiodothyronine, 0.5% (w/v) bovine serum albumin (BSA), 10 mM HEPES, 0.5 mM sodium pyruvate, and an extra 2 mM L-glutamine (final concentration 4.5 mM). Cells were incubated at a constant temperature at 37° C. in a humidified atmosphere containing 5% CO2 and were subcultured every 2 to 3 days in order to maintain cells in logarithmic growth, except for NCI-H1435 which was subcultured every 7 days.
(§4) The cytotoxicity studies were carried out according to a standard protocol using the Celltiter 96 aqueous nonradioactive cell proliferation assay kit (Promega, Madison, Wis.). Stock solutions (10 mM) of all drugs were made in DMF, except for P1-B2 which was made in DMSO, and serially diluted with media prior to incubation with cancer cells. IC50 values were calculated from nonlinear curve fits using a sigmoidal dose-response equation in GraphPad Prism (GraphPad Software, La Jolla, Calif.).

NCI-H520 = test: Cytotoxicity assay (MTS, Celltiter 96) in NCI-H520; format: cell-based, human; conditions: mean of duplicate experiments ± SD
Description: as §1, §2, §3, §4

NCI-H522 = test: Cytotoxicity assay (MTS, Celltiter 96) in NCI-H522; format: cell-based, human; conditions: 72 h drug incubation, mean of duplicate experiments ± SD
Description: as §1, §2, §3
as §4, with “Stock solutions (10 mM) of all drugs were made in DMF, except for P1-B2 which was made in DMSO, and serially diluted with media prior to incubation with cancer cells.” left out

NCI-H1435 = test: Cytotoxicity assay (MTS, Celltiter 96) in NCI-H1435; format: cell-based, human; conditions: 72 h drug incubation, mean of duplicate experiments ± SD
Description: as §1, §2, §3
as §4, with “Stock solutions (10 mM) of all drugs were made in DMF, except for P1-B2 which was made in DMSO, and serially diluted with media prior to incubation with cancer cells.” left out

A549 = test: Cytotoxicity assay (MTS, Celltiter 96) in A549; format: cell-based, human; conditions: 72 h drug incubation, mean of duplicate experiments ± SD
Description: as §1, §2, §3
as §4, with “Stock solutions (10 mM) of all drugs were made in DMF, except for P1-B2 which was made in DMSO, and serially diluted with media prior to incubation with cancer cells.” left out

[1] = test system: non-small-cell lung cancer cell lines; test: Cytotoxicity across NSCLC lines (summary statements); format: cell-based, human
Description: as §1
When observing the structure-activity relationship of the platinum hybrid agents, it is important to note the increased cytotoxicity upon addition of the platinum module.
The human non-small cell lung cancer cell lines, NCI-H460 (large cell), NCI-H520 (squamous cell), NCI-H522, NCI-H1435 and A549 (adenocarcinomas) were obtained from the American Type Culture Collection (Rockville, Md., USA). NCI-H460, NCI-H520 and NCI-H522 cells were cultured in RPMI-1640 media (HyClone) supplemented with 10% fetal bovine serum (FBS), […] (P&S), […], and 1.5 g/L NaHCO3. A549 cells were cultured in HAM's F12K media (Gibco) with the same additives as above. […]
as §4, with “Stock solutions (10 mM) of all drugs were made in DMF, except for P1-B2 which was made in DMSO, and serially diluted with media prior to incubation with cancer cells.” left out

DNA from NCI-H460 cells = test: Platinum content associated with DNA in NCI-H460 cells (ICP-MS); format: cell-based, human; conditions: 1 μM drug, both time points, p>0.05
Description: (§5) To determine the platinum content of nucleic acid material, DNA and RNA was extracted and purified from cells using the Qiagen AllPrep DNA/RNA Mini Kit (Qiagen, Alameda, Calif., USA). 1.5×10^6 exponentially-growing NCI-H460 cells were seeded into 60-mm cell culture dishes with 2 mL of media and were allowed to attach for 24 hours. Cells were incubated in the presence of 1 μM P1-A1 or P1-B1 at 37° C. for various time intervals. Incubations were performed in triplicate for each incubation condition/time point. To quench the incubations, cells were washed three times in cold PBS. The cells were harvested via trypsinization and removed from the dishes with successive washes of cold PBS. Cell suspensions were centrifuged at 1500 rpm for 5min at 4° C. The cell pellet was re-suspended in 5 mL of cold PBS and centrifuged at 1500 rpm for 5 min at 4° C. The supernatant was removed and the DNA/RNA was extracted from the pellet according to the protocol provided by the manufacturer. The concentration and purity of each sample was determined spectrophotometrically (triplicate readings at 260 and 280 nm).
(§6) Platinum content was determined by ICP-MS.

RNA from NCI-H460 cells = test: Platinum content associated with RNA in NCI-H460 cells (ICP-MS); format: cell-based, human; conditions: 1 μM drug, 3 h, p<0.05
Description: as §5, §6

G-quadruplex DNA = G-quadruplex DNA recognition and platination; format: binding; conditions: for Selective recognition of G-quadruplex DNA: displayed by induced circular dichroism (ICD)
[2] = Spectrophotometric determination of pKa values for platinum complexes; format: physicochemical; conditions: spectrophotometric titration at 25° C.; numeric values only in Chart 3 drawing
Description: The pKa values of P1-A1, P1-B1 and P1-B2 were determined spectrophotometrically using a Hewlett Packard 8354 spectrophotometer equipped with a Peltier temperature control and a cell stirring module. Titrations were carried out at 25° C. in the pH range 2-11 with a micro combination electrode placed inside the cuvette. Solutions of P1-A1 (˜100 μM), P1-B1 (˜100 μM), and P1-B2 (˜50 μM) in 0.1 M HCl/100 mM NaCl were titrated with aliquots of 0.4 M, 0.04M, and 0.004M KOH, and UV-Vis spectra were recorded after a 2 min equilibration time. The protonation state of the chromophores was deduced from spectral changes around isosbestic points. The pKa values were determined graphically from plots of pH vs. log[k(Aacr/AacrH+)], where k=εacrH+/εacr using suitable absorbance maxima. The pKa values of P1-A1 and P1-B1 were determined at the y-intercept of the plot. […] Reported pKa values are means of three measurements+/−the standard deviation.

[3] = Homo sapiens, NCI-H520, 72 h drug incubation

Compound	IC50 (NCI-H460) [µM]	IC50 (NCI-H520; 72 h drug incubation) [µM]	IC50 (NCI-H522) [µM]	IC50 (NCI-H1435) [µM]	IC50 (A549) [µM]	cytotoxicity (in words) ([1]; 72 hour incubations, extremely aggressive NSCLC models)	IC50 ([1]; NSCLC lines tested except NCI-H1435) [nM]	platinum level observed in the DNA of treated cells vs control cells (DNA from NCI-H460 cells)	platinum level observed in the RNA of treated cells (RNA from NCI-H460 cells)	folding and irreversible platination of G-quadruplex DNA (G-quadruplex DNA)	Selective recognition of G-quadruplex DNA (G-quadruplex DNA)	pKa (rank among the three Pt-chromophore hybrid agents) [2]	IC50 (NCI-H460; Homo sapiens, NCI-H460) [µM]	IC50 value (in words) (NCI-H460; NCI-H460 cells, 72 h incubation, chromophore module alone)	IC50 (NCI-H520; [3]) [µM]
[Pt(Cl)(NH3)2(N-(2-(benzo[c]acridin-7-ylamino)ethyl)-N-methylpropionimidamide)] Cl [Compound P1-B1]	0.24 ± 0.01	0.516 ± 0.009	0.12 ± 0.02	1.479 ± 0.009	0.32 ± 0.06	nanomolar cytotoxicity	100 to 500	not statistically significant	statistically significant	ability to fold and irreversibly platinate G-quadruplex DNA	Selective recognition of G-quadruplex DNA	–	–	–	–
[Pt(Cl)(NH3)2(N-methyl-N-(2-((9-nitrobenzo[c]acridin-7-yl)amino)ethyl)propionimidamide)] Cl •1/3 DMF [Compound P1-B2]	2.4 ± 0.5	2.2 ± 0.1	3.62 ± 0.08	11 ± 0.2	12.4 ± 0.9	–	–	–	–	ability to fold and irreversibly platinate G-quadruplex DNA	Selective recognition of G-quadruplex DNA	lowest	–	–	–
[Pt(Cl)(NH3)2(N-(2-(acridin-9-ylamino)ethyl)-N-methylpropionimidamide)] Cl [Compound P1-A1, reference compound]	0.0052 ± 6e-05	0.043 ± 0.004	0.01 ± 0.0007	0.84 ± 0.07	0.0065 ± 0.0002	–	–	–	–	–	not previously displayed	highest	–	–	–
CNCCNc1c2ccccc2nc2c1ccc1ccccc12 [Compound B1, N1-(benzo[c]acridin-7-yl)-N2-methylethane-1,2-diamine]	–	–	–	–	–	–	–	–	–	–	–	–	0.9 ± 0.1	sub-micromolar range	1.8 ± 0.1
CNCCNc1c2cc([N+](=O)[O-])ccc2nc2c1ccc1ccccc12 [Compound B2, N1-methyl-N2-(9-nitrobenzo[c]acridin-7-yl)ethane-1,2-diamine]	–	–	–	–	–	–	–	–	–	–	–	–	2.08 ± 0.04	–	3.35 ± 0.08

— patent US10377784B2, “Design, synthesis, and biological activity of platinum-benz[c]acridine hybrid agents and methods associated therewith” (Wake Forest University, priority 2014, dated 2019)
